The target of test [1] is T1, 5-HT2B (Homo sapiens, UniProt P41595). Kind of test: Ca2+ flux assay, 5-HT2B. It counts as cell-based. More on the design: expressed in transfected cells. As to conditions: Ca2+ flux; for Emax: read-out: 5-HT2B Emax % 5-HT.
Test [2] concerns the target 5-HT1D (Homo sapiens, UniProt P28221). Kind of test: Competitive radioligand binding (NIMH PDSP).
For test [3], the target named is T2, 5-HT1A (Homo sapiens, UniProt P08908).
T2 sequence (P08908 1-422): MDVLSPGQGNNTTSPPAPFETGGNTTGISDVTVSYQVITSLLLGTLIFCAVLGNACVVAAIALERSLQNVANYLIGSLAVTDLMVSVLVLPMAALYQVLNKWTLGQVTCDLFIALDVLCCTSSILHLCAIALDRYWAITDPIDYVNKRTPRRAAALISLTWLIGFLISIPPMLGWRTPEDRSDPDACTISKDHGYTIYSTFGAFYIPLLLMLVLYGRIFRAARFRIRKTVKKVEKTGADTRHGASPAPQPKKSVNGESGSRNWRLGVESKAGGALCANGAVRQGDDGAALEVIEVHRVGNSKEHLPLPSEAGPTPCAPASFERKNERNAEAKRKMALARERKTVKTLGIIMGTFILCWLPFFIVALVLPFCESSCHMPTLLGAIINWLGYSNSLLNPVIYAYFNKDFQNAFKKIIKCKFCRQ
As to the kind of experiment: Competitive radioligand binding (NIMH PDSP).

For test [4], the target named is T3, 5-HT2A (Homo sapiens, UniProt P28223). As to the kind of experiment: Competitive radioligand binding (NIMH PDSP).
T3 sequence (P28223 whole entry): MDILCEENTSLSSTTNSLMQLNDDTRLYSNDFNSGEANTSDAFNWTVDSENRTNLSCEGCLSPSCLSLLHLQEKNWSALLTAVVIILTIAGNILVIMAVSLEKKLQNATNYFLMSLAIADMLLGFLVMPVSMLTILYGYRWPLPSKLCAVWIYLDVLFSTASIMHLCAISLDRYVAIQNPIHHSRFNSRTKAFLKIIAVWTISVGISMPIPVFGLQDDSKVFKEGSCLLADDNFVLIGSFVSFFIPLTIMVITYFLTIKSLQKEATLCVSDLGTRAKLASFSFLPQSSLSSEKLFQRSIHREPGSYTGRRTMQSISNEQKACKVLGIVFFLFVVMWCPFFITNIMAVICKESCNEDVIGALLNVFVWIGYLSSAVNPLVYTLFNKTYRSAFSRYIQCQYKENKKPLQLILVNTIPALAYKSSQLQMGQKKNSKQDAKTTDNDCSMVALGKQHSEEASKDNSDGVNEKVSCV
Test [5] concerns the target 5-HT1e (Homo sapiens, UniProt P28566). Kind of test: Competitive radioligand binding (NIMH PDSP).
For test [6], the target named is 5-HT1B (Homo sapiens, UniProt P28222). Kind of test: Competitive radioligand binding (NIMH PDSP).
5-HT1B, sequence (P28222 whole entry, species assumed): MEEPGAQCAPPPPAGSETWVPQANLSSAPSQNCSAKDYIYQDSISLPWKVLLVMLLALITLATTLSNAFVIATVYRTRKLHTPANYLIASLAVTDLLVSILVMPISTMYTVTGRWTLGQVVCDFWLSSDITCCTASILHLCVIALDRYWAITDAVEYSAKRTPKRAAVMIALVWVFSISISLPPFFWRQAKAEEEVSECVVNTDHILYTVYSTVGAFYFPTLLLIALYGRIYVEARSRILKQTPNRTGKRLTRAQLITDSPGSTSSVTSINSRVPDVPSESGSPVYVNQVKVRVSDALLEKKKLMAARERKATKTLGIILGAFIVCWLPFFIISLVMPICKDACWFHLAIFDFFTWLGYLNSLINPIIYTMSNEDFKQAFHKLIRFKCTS
Test [7] addresses T4, 5-HT3 (Homo sapiens, UniProt P46098).
T4 sequence (P46098 24-478): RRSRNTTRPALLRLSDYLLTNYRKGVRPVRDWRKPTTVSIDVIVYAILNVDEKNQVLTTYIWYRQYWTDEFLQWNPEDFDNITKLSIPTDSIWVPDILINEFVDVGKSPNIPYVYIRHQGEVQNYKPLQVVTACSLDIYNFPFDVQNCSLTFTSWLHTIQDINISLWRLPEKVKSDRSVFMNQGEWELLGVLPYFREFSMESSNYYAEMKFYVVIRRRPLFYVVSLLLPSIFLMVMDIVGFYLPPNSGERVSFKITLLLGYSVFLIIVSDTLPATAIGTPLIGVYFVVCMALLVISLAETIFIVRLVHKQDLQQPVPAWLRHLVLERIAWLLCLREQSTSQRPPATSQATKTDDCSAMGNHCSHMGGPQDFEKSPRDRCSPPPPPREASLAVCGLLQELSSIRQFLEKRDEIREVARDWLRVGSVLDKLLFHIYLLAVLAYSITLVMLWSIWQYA
As to the kind of experiment: Competitive radioligand binding (NIMH PDSP). Put shortly:
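Competition binding against [3H]-ketanserin on human 5-HT2A membranes, and against the respective radioligand at the other receptors. Ki measured in triplicate after a 10,000 nM primary screen.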

The target of test [8] is T5, 5-HT2C (Homo sapiens, UniProt P28335).
T5 sequence (P28335 33-458): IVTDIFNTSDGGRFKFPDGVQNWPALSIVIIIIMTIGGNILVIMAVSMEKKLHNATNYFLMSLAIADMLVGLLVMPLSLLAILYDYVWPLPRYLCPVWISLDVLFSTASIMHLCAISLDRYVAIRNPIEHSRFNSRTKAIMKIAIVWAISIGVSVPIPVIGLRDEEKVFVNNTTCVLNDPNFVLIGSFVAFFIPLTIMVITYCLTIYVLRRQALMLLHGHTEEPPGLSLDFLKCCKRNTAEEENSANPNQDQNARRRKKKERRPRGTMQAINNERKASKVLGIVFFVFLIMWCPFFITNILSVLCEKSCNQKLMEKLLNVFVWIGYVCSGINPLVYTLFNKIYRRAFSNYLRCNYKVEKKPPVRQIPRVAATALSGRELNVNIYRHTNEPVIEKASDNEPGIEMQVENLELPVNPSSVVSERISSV
Kind of test: Ca2+ flux assay, 5-HT2C. To be noted: for Emax: read-out: 5-HT2C Emax % 5-HT. It counts as cell-based. More on the design: expressed in transfected cells. On the technique in general: A change in cytosolic calcium serves as a functional read-out for many receptors and channels.

Test [9] has as its target T1, 5-HT2B. As to the kind of experiment: Competitive radioligand binding (NIMH PDSP). More on the design: expressed in transfected cells.
Test [10] has as its target T5, 5-HT2C. As to the kind of experiment: Competitive radioligand binding (NIMH PDSP). The arrangement: expressed in transfected cells.
Test [11] relates to 5-HT2A. As to the kind of experiment: Ca2+ flux assay, 5-HT2A. It is filed as cell-based, human. As to conditions: Gq/11 Ca2+ mobilization; higher number = skewed towards 5-HT2A.
Test [12] addresses T3, 5-HT2A. As to the kind of experiment: Ca2+ flux assay, 5-HT2A. It counts as cell-based. More on the design: expressed in transfected cells. To be noted: for Emax: read-out: 5-HT2A Emax % 5-HT, Ca2+ flux.

Some results are limits rather than exact numbers.

5-HT1e, sequence (P28566 whole entry, species assumed): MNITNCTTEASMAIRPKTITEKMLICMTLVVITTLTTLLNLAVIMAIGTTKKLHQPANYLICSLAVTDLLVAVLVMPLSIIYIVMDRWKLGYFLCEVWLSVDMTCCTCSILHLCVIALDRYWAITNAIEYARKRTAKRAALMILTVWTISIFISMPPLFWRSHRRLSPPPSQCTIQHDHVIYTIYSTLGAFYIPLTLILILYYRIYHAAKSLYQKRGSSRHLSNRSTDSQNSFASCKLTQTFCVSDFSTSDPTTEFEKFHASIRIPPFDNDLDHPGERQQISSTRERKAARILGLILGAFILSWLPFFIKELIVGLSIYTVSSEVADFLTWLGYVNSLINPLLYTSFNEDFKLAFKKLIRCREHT
5-HT1D, sequence (P28221 whole entry, species assumed): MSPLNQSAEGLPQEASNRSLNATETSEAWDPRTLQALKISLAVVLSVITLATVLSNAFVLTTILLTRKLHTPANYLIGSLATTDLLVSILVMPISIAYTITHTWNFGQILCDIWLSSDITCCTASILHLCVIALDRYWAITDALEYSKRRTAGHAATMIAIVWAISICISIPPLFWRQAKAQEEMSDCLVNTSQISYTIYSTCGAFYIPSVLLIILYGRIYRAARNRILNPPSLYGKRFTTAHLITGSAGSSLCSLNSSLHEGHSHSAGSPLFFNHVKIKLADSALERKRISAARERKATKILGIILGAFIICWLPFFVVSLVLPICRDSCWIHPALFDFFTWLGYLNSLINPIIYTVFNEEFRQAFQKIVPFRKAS
T1 sequence (P41595 whole entry): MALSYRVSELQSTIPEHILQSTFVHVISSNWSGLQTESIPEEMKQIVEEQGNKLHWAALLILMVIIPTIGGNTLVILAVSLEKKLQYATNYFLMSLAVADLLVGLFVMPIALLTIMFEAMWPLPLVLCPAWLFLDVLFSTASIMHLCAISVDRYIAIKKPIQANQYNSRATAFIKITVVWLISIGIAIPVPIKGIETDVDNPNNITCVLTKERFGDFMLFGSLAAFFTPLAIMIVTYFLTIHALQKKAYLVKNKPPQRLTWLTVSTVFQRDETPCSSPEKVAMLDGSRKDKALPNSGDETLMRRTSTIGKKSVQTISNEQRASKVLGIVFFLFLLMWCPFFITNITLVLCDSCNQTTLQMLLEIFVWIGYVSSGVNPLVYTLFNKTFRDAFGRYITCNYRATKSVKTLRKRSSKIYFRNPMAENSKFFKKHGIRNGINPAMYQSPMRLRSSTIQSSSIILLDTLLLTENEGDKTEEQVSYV

What is called Emax is the greatest response seen or fitted, relative to the assay's reference. As a reminder, the Ki is a dissociation constant, usually derived from enzyme kinetics or from competition with a known ligand. Higher therefore signals lower affinity. Turning to `COc1cc([N+](=O)[O-])c(OC)cc1CCNCc1cccc2ccccc12` [25N-N-1-Nap (16), [2-(2,5-dimethoxy-4-nitrophenyl)ethyl][(naphthalen-1-yl)methyl]amine], the “5-HT2B EC50, nM” value in test [1] was “No activity”. For the same compound, the Emax in [1], in [8] and in test [12] was under 10% each time. Also, the Ki in test [2] was 871 nM; in [3], 240 nM; in test [4] it was 1.15 nM; in test [5], over 10000 nM; in test [6], over 10000 nM; in test [7], over 10000 nM. Besides, the Ki was 1.17 nM in test [9] and 4.27 nM in test [10]. For the same compound, the “5-HT2C EC50, nM” value in test [8] is given as “No activity”. Further, the “5-HT2A/5-HT2c Selectivity Factor ΔLog(Emax/EC50)” value in [11] is on record as 5-HT2A Selective. In test [12] (Ca2+ flux), the “5-HT2A EC50, nM” value was “No activity”.

As a reminder, the EC50 is the concentration that produces a half-maximal response. The low end stands for a more potent agent, the high end for a less potent agent. With `COc1cc([N+](=O)[O-])c(OC)cc1CCNCc1cccc(O)c1` [25N-NB-3-OH (21), 3-({[2-(2,5-dimethoxy-4-nitrophenyl)ethyl]amino}methyl)phenol], the “5-HT2B EC50, nM” value in test [1] is listed as “No activity”. The Emax in test [1] was under 10%; in [8] it was 53 ± 4%; in test [12] it was 55 ± 2%. In addition, the Ki was over 10000 nM in [2]; 1860 nM in test [3]; 14.5 nM in test [4]; over 10000 nM in test [5]; over 10000 nM in test [6]; over 10000 nM in [7]. The Ki in [9] was 35.5 nM; in test [10] it was 83.2 nM. For the same compound, the EC50 amounted to 49.1 nM in test [8] (5-HT2C EC50, nM) and 3.32 nM in [12] (5-HT2A EC50, nM, Ca2+ flux). The “5-HT2A/5-HT2c Selectivity Factor ΔLog(Emax/EC50)” value in [11] turned out to be 92.6.

In the case of `COc1cc([N+](=O)[O-])c(OC)cc1CCNCc1ccccc1OC` [25N-NBOMe (4), [2-(2,5-dimethoxy-4-nitrophenyl)ethyl] [(2-methoxyphenyl)methyl]amine], in test [1], the “5-HT2B EC50, nM” value is on record as “No activity”. Also, the Emax in test [1] was under 10%; in [8], 102 ± 1%; in test [12] it was 94%. The inhibition constant Ki in test [2] was 5620 nM; in [3] it was 1860 nM; in test [4], 0.55 nM; in test [5] it was over 10000 nM; in test [6], over 10000 nM; in test [7], over 10000 nM. The results for the Ki in [9] and in test [10] were 4.47 nM and 6.92 nM, respectively. Moreover, the EC50 was 0.851 nM in [8] (5-HT2C (pEC50 ± SEM)); 0.84 nM in test [8] (5-HT2C EC50, nM); 0.316 nM in [12] (5-HT2A (pEC50 ± SEM), Ca2+ flux). Further, the “5-HT2A/5-HT2c Selectivity Factor ΔLog(Emax/EC50)” value in [11] worked out at 2.4.

Consider `COc1cc([N+](=O)[O-])c(OC)cc1CCNCc1ccccc1C(F)(F)F` [25N-NBCF3 (14), [2-(2,5-dimethoxy-4-nitrophenyl)ethyl]({[2-(trifluoromethyl)phenyl]methyl}) amine], for which the “5-HT2B EC50, nM” value in test [1] was “No activity”. In addition, the figures for the Emax in [1], in test [8] and in [12] were under 10%, 20 ± 2% and at most 77%, respectively. Besides, the Ki in test [2] is over 10000 nM; in test [3] it was 1070 nM; in test [4] it was 20 nM; in test [5], over 10000 nM; in test [6] it was over 10000 nM; in test [7], over 10000 nM. The Ki in [9] is 58.9 nM; in [10] it was 102 nM. Also, the EC50 in [8] (5-HT2C EC50, nM) was 271 nM; in test [12] (5-HT2A EC50, nM, Ca2+ flux), 12.3 nM. In test [11], the “5-HT2A/5-HT2c Selectivity Factor ΔLog(Emax/EC50)” value came out at 85.5. Also, in test [12] (Ca2+ flux), the “5-HT2A Emax % 5-HT” value is 77 ± 1 % 5-HT.

`COc1cc([N+](=O)[O-])c(OC)cc1CCNCc1ccccc1I` [25N-NBI (10)]: in test [1], the “5-HT2B EC50, nM” value was “No activity”. The Emax in test [1] was under 10%; in test [8], 45 ± 2%; in test [12], 88 ± 1%. The Ki was over 10000 nM in [2]; 1000 nM in test [3]; 5.37 nM in test [4]; over 10000 nM in [5]; over 10000 nM in test [6]; over 10000 nM in test [7]. Further, the Ki is 20 nM in [9] and 43.7 nM in test [10]. Also, the EC50 in test [8] (5-HT2C EC50, nM) came out at 682 nM; in test [12] (5-HT2A EC50, nM, Ca2+ flux), 3.29 nM. In [11], the “5-HT2A/5-HT2c Selectivity Factor ΔLog(Emax/EC50)” value is listed as 406.

The record behind these values is patent US20240254087A1, “SELECTIVE, PARTIAL, AND ARRESTIN-BIASED 5-HT2A AGONISTS WITH UTILITY IN VARIOUS DISORDERS” (Saint Joseph's University, priority 2021, published 2024).
